{"source": "patent US5668182A", "about": "“Method of calming or sedating an animal with a hydroxy benzaldehyde compound” (priority 1996, dated 1997)", "tested_on": "mice", "test": "Electroshock-induced seizures in mice (Example 5)", "assay_type": "in vivo", "conditions": "vanillin 300 mg/kg i.p.", "experimental": "Mice were treated with vanillin (100, 200, or 300 mg/kg) or saline (0.9% NaCl) by i.p. injection. The treatment was followed either by injection of pentylenetetrazol (\"Metrazol\"), 80 or 90 mg/kg by i.p. injection (given 5 minutes after vanillin) or by exposure to a 1-second pulse of shock through electrodes clamped to the ears (5 minutes after vanillin). The end-points for both tests were the occurrence of a tonic (extensor) convulsion and/or death. Six mice were used per group for the Metrazol-induced seizure test, and five mice were used per group for the electroshock-induced seizure test."}
{"smiles": "COc1cc(C=O)ccc1O", "note": "[vanillin, 4-hydroxy-3-methoxybenzaldehyde]", "values": [{"measurement": "Death", "setting": "1-second electroshock (vehicle 1/5)", "result": "0/5"}, {"measurement": "Tonic Convulsion", "setting": "1-second electroshock (vehicle 5/5)", "result": "4/5"}]}
